# Target: T1, Tyrosine-protein phosphatase non-receptor type 1 (Homo sapiens, UniProt P18031)
# T1 sequence (P18031 whole entry): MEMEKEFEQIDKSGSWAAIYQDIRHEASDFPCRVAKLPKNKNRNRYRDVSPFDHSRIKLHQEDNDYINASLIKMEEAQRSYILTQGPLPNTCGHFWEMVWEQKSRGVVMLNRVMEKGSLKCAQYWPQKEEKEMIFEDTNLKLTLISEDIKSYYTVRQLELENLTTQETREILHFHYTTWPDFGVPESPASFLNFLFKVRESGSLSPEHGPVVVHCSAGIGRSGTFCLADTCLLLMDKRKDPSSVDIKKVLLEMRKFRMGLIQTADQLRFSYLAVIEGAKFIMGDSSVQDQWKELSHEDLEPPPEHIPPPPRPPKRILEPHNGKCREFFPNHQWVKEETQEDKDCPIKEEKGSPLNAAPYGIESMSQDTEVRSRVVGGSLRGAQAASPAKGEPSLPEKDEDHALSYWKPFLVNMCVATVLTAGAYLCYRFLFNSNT
# Assay: The inhibitory activity tested against human Protein-tyrosine phosphatase 1B enzyme
row,Compound,IC50 [µM]
1,C=CC(C)(C)c1c(O)cc(O)c2c(=O)c(O)c(-c3cc(O)c(O)c(CC=C(C)C)c3)oc12,4.3
2,CC(C)=CCc1cc(C(=O)/C=C/c2ccc(O)c(O)c2)c(O)cc1O [BROUSSOCHALCONE A],36.8
3,CC(C)=CCc1cc(-c2oc3cc(O)cc(O)c3c(=O)c2O)cc(O)c1O,21.5
4,CC(C)=CCc1cc(C2CCc3ccc(O)cc3O2)cc(O)c1O (centres undefined),41.5

# Source: ChEMBL document CHEMBL1134982, “Natural PTP1B inhibitors from Broussonetia papyrifera” (Bioorg Med Chem Lett, 2002)
